Source: patent US4230617A, “Somatostatin analogues” (American Home Products Corporation, priority 1979, dated 1980)
Where a name gives a salt, the structure may show the parent alone. Positions of bridges follow the written chain, without caps; N, C: chain ends. Non-standard residues stand in square brackets, D forms with d. Residues, ends and D or L forms follow the SMILES beside them.

How the values were obtained:
Format in all cases: in vivo, albino male rats
growth hormone [1] = assay: Duration test: same procedure with 2 and 4 hour period before blood sampling, growth hormone radioimmunoassay; settings: rat, 1,000 ug/kg
Method: (§1) The in vivo activity of the polypeptides of this invention was established by subjecting the product of Examples 2 and 3 as representative compounds of the invention, to the following standard test procedure: Two groups of ten albino male rats were arranged to provide a control group and a group for study of the compounds of this invention. Nembutal (50 mg/kg) was injected intraperitoneally into each rat. Fifteen minutes late a subcutaneous injection of the test compound or physiological saline (control) was administered separately to each of the two groups of rats. Ten minutes later 0.5 milliliters of arginine (300 mg/ml., pH 7.2) was injected into the rats heart. The rats were decapitated five minutes later and their blood was collected in Trasylol-EDTA. Aliquot samples were radioimmunoassayed for growth hormone, insulin and glucagon. The results of these tests are presented below:
The procedure described in the preceding paragraph was repeated with the exception that a 2 and 4 hour period was allowed to elapse before blood sampling.

insulin = assay: Arginine-stimulated insulin release in Nembutal-anesthetized rats, blood radioimmunoassay; settings: rat
Method: as §1, with “glucagon.” for “glucagon. The results of these tests are presented below:”

glucagon = assay: Arginine-stimulated glucagon release in Nembutal-anesthetized rats, blood radioimmunoassay; settings: rat
Method: as §1, with “glucagon.” for “glucagon. The results of these tests are presented below:”

growth hormone [2] = assay: Arginine-stimulated growth hormone release in Nembutal-anesthetized rats, blood radioimmunoassay; settings: rat, * p < 0.01
Method: as §1, with “glucagon.” for “glucagon. The results of these tests are presented below:”

[3] = 2 hours before blood sampling, * p < 0.01
[4] = 4 hours before blood sampling, + p < 0.05
[5] = summary statement, for periods up to about four hours

SMILES	GH (growth hormone [1]; [3]) [ng/mL]	GH (growth hormone [1]; [4]) [ng/mL]	INS (insulin; 50 μg/kg subcutaneous, control 137 ± 25) [μU/ml]	INS (insulin; 200 μg/kg subcutaneous, control 238 ± 23, + p < 0.05) [μU/ml]	insulin release (result in words) (insulin; [5])	GLUN (glucagon; 50 μg/kg subcutaneous, control 119 ± 8, * p < 0.01) [pg/mL]	GLUN (glucagon; 200 μg/kg subcutaneous, control 85 ± 6, * p < 0.01) [pg/mL]	glucagon release (result in words) (glucagon; [5])	GH (growth hormone [2]; 50 μg/kg subcutaneous, control 379 ± 50) [ng/mL]	GH (growth hormone [2]; 200 μg/kg subcutaneous, control 202 ± 11) [ng/mL]	INS (insulin; 100 μg/kg subcutaneous, control 268 ± 21) [μU/ml]	GLUN (glucagon; 100 μg/kg subcutaneous, control 89 ± 14) [pg/mL]	GH (growth hormone [2]; 100 μg/kg subcutaneous, control 201 ± 40) [ng/mL]
C[C@@H](O)[C@@H]1NC(=O)[C@H](Cc2ccccc2)NC(=O)[C@H]([C@@H](C)O)NC(=O)[C@H](CCCCN)NC(=O)[C@@H](Cc2c[nH]c3ccccc23)NC(=O)[C@H](Cc2c[nH]c3ccccc23)NC(=O)[C@H](Cc2ccccc2)NC(=O)[C@H](Cc2c[nH]cn2)NC(=O)[C@H](CCCNC(=N)N)NC(=O)[C@@H](N)CSSC[C@@H](C(=O)O)NC(=O)[C@H](CO)NC1=O [Example 2, L-Cysteinyl-L-arginyl-L-histidyl-L-phenylalanyl-L-tryptophyl-D-tryptophyl-L-lysyl-L-threonyl-L-phenylalanyl-L-threonyl-L-seryl-L-cysteine cyclic (1-12) disulfide tetraacetate salt] (H-CRHFW[dW]KTFTSC-OH; disulfide 1-12)	51 ± 9	60 ± 11	61 ± 4	149 ± 23	suppress	36 ± 8	20 ± 4	suppress	104 ± 8	92 ± 8	–	–	–
C[C@@H](O)[C@@H]1NC(=O)[C@H](Cc2ccccc2)NC(=O)[C@H]([C@@H](C)O)NC(=O)[C@H](CCCCN)NC(=O)[C@@H](Cc2c[nH]c3ccccc23)NC(=O)[C@H](Cc2c[nH]cn2)NC(=O)[C@H](Cc2ccccc2)NC(=O)[C@H](Cc2c[nH]cn2)NC(=O)[C@H](CCCNC(=N)N)NC(=O)[C@@H](N)CSSC[C@@H](C(=O)O)NC(=O)[C@H](CO)NC1=O [Example 3, L-Cysteinyl-L-arginyl-L-histidyl-L-phenylalanyl-L-histidyl-D-tryptophyl-L-lysyl-L-threonyl-L-phenylalanyl-L-threonyl-L-seryl-L-cysteine cyclic (1-12) disulfide tetraacetate salt] (H-CRHFH[dW]KTFTSC-OH; disulfide 1-12)	181 ± 59	129 ± 29	–	–	–	–	–	–	–	–	282 ± 48	72 ± 13	48 ± 20
